According to patent publication US20100113513A1, “QUINOLINE DERIVATIVES AS FUNGICIDES” (SYNGENTA CROP PROTECTION, INC., priority 2007, published 2010):

These molecules were tested on Erysiphe graminis f.sp. tritici (assay: Erysiphe graminis f.sp. tritici (wheat powdery mildew) wheat leaf segment test, preventive). Settings: Blumeria graminis, foliar, 96 h, wheat leaf segments, assessed four days after inoculation, read-out: control of fungal infection, Erysiphe graminis f.sp. tritici.
Type: in vivo
Work on `CCC(Oc1cc(C)c2ncc(Br)cc2c1)C(=O)NC(C)(C)COC` (stereo not drawn) [47 (90), 2-(3-Bromo-8-methyl-quinolin-6-yloxy)-N-(2-methoxy-1,1-dimethyl-ethyl)-butyramide] yielded a pest or weed control at 200 ppm of at least 60%. With `CCOC(Oc1ccc2ncc(Br)cc2c1)C(=O)NC(C)(C)C` (stereo not drawn) [12 (156), 2-(3-Bromo-quinolin-6-yloxy)-N-tert-butyl-2-ethoxy-acetamide] the pest or weed control at 200 ppm was at least 60%. With `COC(Oc1ccc2ncc(Br)cc2c1)C(=O)NC(C)(C)C` (stereo not drawn) [12 (155), 2-(3-bromo-quinolin-6-yloxy)-N-tert-butyl-2-methoxy-acetamide] the pest or weed control at 200 ppm was at least 60%. Molecule `COC(Oc1cc(Br)c2ncc(Br)cc2c1)C(=O)NC(C)(C)C` (stereo not drawn) [12 (99), N-tert-Butyl-2-(3,8-dibromo-quinolin-6-yloxy)-2-methoxy-acetamide] has a pest or weed control at 200 ppm of at least 60%. `COCC(C)(C)NC(=O)C(OC)Oc1ccc2ncc(Br)cc2c1` (stereo not drawn) [47 (155), 2-(3-Bromo-quinolin-6-yloxy)-2-methoxy-N-(2-methoxy-1,1-dimethyl-ethyl)-acetamide] showed a pest or weed control at 200 ppm of at least 60%. Molecule `CCOC(Oc1ccc2ncc(Br)cc2c1)C(=O)NC(C)(C)COC` (stereo not drawn) [47 (156), 2-(3-Bromo-quinolin-6-yloxy)-2-ethoxy-N-(2-methoxy-1,1-dimethyl-ethyl)-acetamide] has a pest or weed control at 200 ppm of at least 60%. Work on `CCC(Oc1ccc2ncc(Br)cc2c1)C(=O)NC(C)(C)C` (stereo not drawn) [12 (154), 2-(3-bromo-quinolin-6-yloxy)-N-tert-butyl-butyramide] yielded a pest or weed control at 200 ppm of at least 60%. `CCC(Oc1ccc2ncc(Br)cc2c1)C(=O)NC(C)(C#N)COC` (stereo not drawn) [52 (154), 2-(3-Bromo-quinolin-6-yloxy)-N-(1-cyano-2-methoxy-1-methyl-ethyl)-butyramide] gave a pest or weed control at 200 ppm of at least 60%. For `COCC(C)(C#N)NC(=O)C(OC)Oc1ccc2ncc(Br)cc2c1` (stereo not drawn) [52 (155), 2-(3-Bromo-quinolin-6-yloxy)-N-(1-cyano-2-methoxy-1-methyl-ethyl)-2-methoxy-acetamide], the pest or weed control at 200 ppm was at least 60%.
